Results on eight compounds are retold here after US20220389003A1, “4-SUBSTITUTED INDOLE AND INDAZOLE SULFONAMIDO DERIVATIVES AS PARG INHIBITORS” (IDEAYA BIOSCIENCES, INC., priority 2019, published 2022).

pIC50: −log10 of the molar value.

The subject of test [1] is HCC1806-XRCC1 KD (knock down) cells. In words: Cellular viability assay (Cell Titer-Glo). It is filed as cell-based. The conditions noted are these: 96 h, HCC1806-shXRCC1 cells, 4 days of incubation, read-out: PARGi cell viability. The gist of the method:
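XRCC1-knockdown HCC1806 cells seeded 24 h before dosing; 9-point 1:3 dilution from 30 μM top concentration, duplicates, 4-day incubation. Viability by CellTiter-Glo luminescence, normalized to DMSO wells as % of control; curves fit with 4-parameter inhibition model.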

Test [2] has as its target T1, PARG (Homo sapiens, UniProt Q86W56). In words: Inhibition of PARG enzymatic assay (TR-FRET enzymatic IC50 assay). The format is biochemical. On the set-up: purchased Peak Proteins. The conditions noted are these: hPARG 250 pM, biotinylated-PARylated PARP substrate 30 nM. A digest of the protocol:
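Compound preincubated 1 h with 250 pM His-tagged hPARG, then 30 nM biotinylated PARylated hPARP1 substrate added for 10 min; buffer 50 mM Tris-HCl pH 7.4, EDTA/EGTA, 1 mM DTT, 23° C. TR-FRET read after 1 h with anti-His ULight antibody and streptavidin-europium; inhibition scaled between DMSO and no-enzyme controls.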

Test [3] deals with T1, PARG. As to the kind of experiment: Inhibition of PARG cellular assay (PAR foci in HeLa cells after MMS). It is filed as cell-based. Details: endogenous in cells; host or cells: HeLa. The following applies: compound 1 h then MMS 1 h. A digest of the protocol:
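HeLa cells pretreated with compound for 1 h, then given MMS for a further 1 h, fixed and immunostained for PAR polymer. High-content imaging quantified nuclear PAR foci intensity (PAR Foci IC50) and percent cells with foci signal >1.3 (PAR % positive IC50).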

T1 sequence (Q86W56 whole entry): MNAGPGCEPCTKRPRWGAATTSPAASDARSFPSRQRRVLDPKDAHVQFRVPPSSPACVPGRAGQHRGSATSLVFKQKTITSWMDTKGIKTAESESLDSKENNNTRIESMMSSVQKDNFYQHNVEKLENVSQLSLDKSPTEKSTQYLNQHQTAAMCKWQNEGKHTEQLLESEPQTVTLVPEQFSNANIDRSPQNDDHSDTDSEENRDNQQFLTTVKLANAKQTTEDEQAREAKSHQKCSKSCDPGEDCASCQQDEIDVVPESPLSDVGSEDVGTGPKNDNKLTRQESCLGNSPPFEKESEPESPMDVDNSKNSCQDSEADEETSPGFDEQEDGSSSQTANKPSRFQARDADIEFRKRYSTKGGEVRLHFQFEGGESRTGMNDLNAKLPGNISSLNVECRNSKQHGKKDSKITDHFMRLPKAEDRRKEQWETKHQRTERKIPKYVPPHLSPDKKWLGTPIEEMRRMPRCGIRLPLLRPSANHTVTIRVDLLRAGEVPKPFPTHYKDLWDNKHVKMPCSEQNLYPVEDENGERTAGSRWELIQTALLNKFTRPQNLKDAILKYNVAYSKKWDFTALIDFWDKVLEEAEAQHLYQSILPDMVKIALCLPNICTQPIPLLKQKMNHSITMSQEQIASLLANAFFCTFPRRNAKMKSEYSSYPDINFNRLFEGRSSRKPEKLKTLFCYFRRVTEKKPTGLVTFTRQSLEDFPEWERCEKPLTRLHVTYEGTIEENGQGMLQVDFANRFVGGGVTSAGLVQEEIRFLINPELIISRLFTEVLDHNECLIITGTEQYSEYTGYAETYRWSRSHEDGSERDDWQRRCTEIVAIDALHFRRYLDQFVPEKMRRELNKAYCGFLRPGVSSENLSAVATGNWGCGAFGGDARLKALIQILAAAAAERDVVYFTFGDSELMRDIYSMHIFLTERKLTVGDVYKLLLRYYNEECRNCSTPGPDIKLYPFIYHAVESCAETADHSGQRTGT

As for `CC(=O)N1CCN(c2cc(S(=O)(=O)NC3(C#N)CC3)cc3c2cnn3-c2nnc(C(F)F)s2)CC1` [Example 50, 1-[({4-(4-acetylpiperazinyl)-1-[5-(difluoromethyl)(1,3,4-thiadiazol-2-yl)]-1H-indazol-6-yl}sulfonyl)amino]cyclopropanecarbonitrile], the pIC50 in test [1] is 5.00 to 6.00; against PARG [2], not below 7.00; against PARG [3], 6.00 to 6.52.

On to `CN(C)C(=O)C1CCN(c2cc(S(=O)(=O)NC3(C#N)CC3)cc3c2cnn3-c2nnc(C(F)F)s2)CC1` [Example 51, [1-(1-[5-(difluoromethyl)(1,3,4-thiadiazol-2-yl)]-6-{[(cyanocyclopropyl)amino]sulfonyl}(1H-indazol-4-yl))(4-piperidyl)]-N,N-dimethylcarboxamide], for which the pIC50 in test [1] is 4.70 to 5.00; on PARG [2] it was 6.52 to 7.00; at PARG [3], 6.00 to 6.52.

For the compound `N#CC1(NS(=O)(=O)c2cc(N3CCS(=O)(=O)CC3)c3cnn(-c4nnc(C(F)F)s4)c3c2)CC1` [Example 52, N-(1-cyanocyclopropyl)-1-(5-(difluoromethyl)-1,3,4-thiadiazol-2-yl)-4-(1,1-dioxidothiomorpholino)-1H-indazole-6-sulfonamide], the pIC50 is 5.00 to 6.00 in test [1], not below 7.00 against PARG [2] and 6.00 to 6.52 against PARG [3].

On to `N#CC1(NS(=O)(=O)c2cc(N3CCN(C(=O)N4CCCC4)CC3)c3cnn(-c4nnc(C(F)F)s4)c3c2)CC1` [Example 57, 1-[({1-[5-(difluoromethyl)(1,3,4-thiadiazol-2-yl)]-4-[4-(pyrrolidinylcarbonyl)-piperazinyl]-1H-indazol-6-yl}sulfonyl)amino]cyclopropanecarbonitrile], for which the pIC50 in test [1] is more than 6.00; at PARG [2], not below 7.00; on PARG [3], not below 7.00.

As for `N#CC1(NS(=O)(=O)c2cc(N3CCN4C(=O)CC[C@H]4C3)c3cnn(-c4nnc(C(F)F)s4)c3c2)CC1` [Example 59, 1-[({4-((1S)-7-oxo-3,6-diazabicyclo[4.3.0]non-3-yl)-1-[5-(difluoromethyl)(1,3,4-thiadiazol-2-yl)]-1H-indazol-6-yl}sulfonyl)amino]cyclopropanecarbonitrile], the pIC50 is 5.00 to 6.00 in test [1], not below 7.00 against PARG [2] and 6.00 to 6.52 against PARG [3].

As to `N#CC1(NS(=O)(=O)c2cc(N3CCN4C(=O)CC[C@@H]4C3)c3cnn(-c4nnc(C(F)F)s4)c3c2)CC1` [Example 60, 1-[({4-((1R)-7-oxo-3,6-diazabicyclo[4.3.0]non-3-yl)-1-[5-(difluoromethyl)(1,3,4-thiadiazol-2-yl)]-1H-indazol-6-yl}sulfonyl)amino]cyclopropanecarbonitrile], the pIC50 in test [1] was 5.00 to 6.00; against PARG [2], not below 7.00; against PARG [3], 6.52 to 7.00.

On to `N#CC1(NS(=O)(=O)c2cc(N3CCN(C(=O)C4CCCC4)CC3)c3cnn(-c4nnc(C(F)F)s4)c3c2)CC1` [Example 66, 1-[({1-[5-(difluoromethyl)(1,3,4-thiadiazol-2-yl)]-4-[4-(cyclopentylcarbonyl)piperazinyl]-1H-indazol-6-yl}sulfonyl)amino]cyclopropanecarbonitrile], for which the pIC50 in test [1] was 5.00 to 6.00; against PARG [2], not below 7.00; on PARG [3], not below 7.00.

Consider `CN(CC(F)F)C(=O)N1CCN(c2cc(S(=O)(=O)NC3(C#N)CC3)cc3c2cnn3-c2nnc(C(F)F)s2)CC1` [Example 67, N-(2,2-difluoroethyl)[4-(1-[5-(difluoromethyl)(1,3,4-thiadiazol-2-yl)]-6-{[(cyanocyclopropyl)amino]sulfonyl}(1H-indazol-4-yl))piperazinyl]-N-methylcarboxamide], for which the pIC50 is more than 6.00 in test [1], not below 7.00 against PARG [2] and not below 7.00 against PARG [3].
